Measured values from patent US9024017B2, “Octahydro-cyclopentapyrrolyl antagonists of CCR2” (Janssen Pharmaceutica NV, priority 2012, dated 2015).

Target: T1, CCR2 (Homo sapiens, UniProt P41597)
T1 construct: host or cells: THP-1 (human monocytic cell line)
Assay: MCP-1 Receptor Binding Assay in THP-1 Cells
Settings: read-out: MCP1B_v3 IC50
Outline: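 Human monocytic THP-1 cells incubated 2 h at 30 °C with 0.5 nM 125I-MCP-1 and varying concentrations of test compound or unlabelled MCP-1. Cells filter-harvested and counted by scintillation; blank subtracted, compared with vehicle; nonspecific binding with 1 μM cold MCP-1.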

T1 sequence (P41597 whole entry): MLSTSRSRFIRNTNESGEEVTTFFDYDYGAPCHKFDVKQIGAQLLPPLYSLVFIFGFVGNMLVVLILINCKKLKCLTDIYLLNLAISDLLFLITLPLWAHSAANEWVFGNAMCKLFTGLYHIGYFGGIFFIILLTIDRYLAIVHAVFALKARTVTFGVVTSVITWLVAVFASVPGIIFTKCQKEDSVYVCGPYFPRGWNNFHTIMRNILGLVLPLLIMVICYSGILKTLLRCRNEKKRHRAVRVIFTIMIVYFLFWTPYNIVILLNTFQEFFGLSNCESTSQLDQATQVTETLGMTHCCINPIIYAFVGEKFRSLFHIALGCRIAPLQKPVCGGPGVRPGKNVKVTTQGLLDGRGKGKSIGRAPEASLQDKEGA

Structure (SMILES)	IC50 [nM]
COC1COCCC1N[C@@H]1C[C@H]2CN(C(=O)OCCN3CCCC3)C[C@@]2(C(=O)N2CCc3ncc(C(F)(F)F)cc3C2)C1 (relative stereo) [Example 45, (3aR,5R,6aR)-2-(Pyrrolidin-1-yl)ethyl 5-(((3S*,4S*)-3-methoxytetrahydro-2H-pyran-4-yl)amino)-3a-(3-(trifluoromethyl)-5,6,7,8-tetrahydro-1,6-naphthyridine-6-carbonyl)hexahydrocyclopenta[c]pyrrole-2(1H)-carboxyl]	70
COC1COCCC1N[C@@H]1C[C@H]2CN(C(=O)OCCN3CCCC3)C[C@@]2(C(=O)N2CCc3ccc(C(F)(F)F)cc3C2)C1 (relative stereo) [Example 46, (3aR,5R,6aR)-2-(Pyrrolidin-1-yl)ethyl 5-(((3S*,4S*)-3-methoxytetrahydro-2H-pyran-4-yl)amino)-3a-(7-(trifluoromethyl)-1,2,3,4-tetrahydroisoquinoline-2-carbonyl)hexahydrocyclopenta[c]pyrrole-2(1H)-carboxylate]	30
COC1COCCC1N[C@@H]1C[C@H]2CN(C(=O)OCC3CCOCC3)C[C@@]2(C(=O)N2CCc3ncc(C(F)(F)F)cc3C2)C1 (relative stereo) [Example 47, (3aR,5R,6aR)-(Tetrahydro-2H-pyran-4-yl)methyl 5-(((3S*,4S*)-3-methoxytetrahydro-2H-pyran-4-yl)amino)-3a-(3-(trifluoromethyl)-5,6,7,8-tetrahydro-1,6-naphthyridine-6-carbonyl)hexahydrocyclopenta[c]pyrrole-2(1H)-carboxylate]	30
COCCOC(=O)N1C[C@@H]2C[C@@H](NC3CCOCC3OC)C[C@]2(C(=O)N2CCc3ncc(C(F)(F)F)cc3C2)C1 (relative stereo) [Example 48, (3aR,5R,6aR)-2-Methoxyethyl 5-(((3S*,4S*)-3-methoxytetrahydro-2H-pyran-4-yl)amino)-3a-(3-(trifluoromethyl)-5,6,7,8-tetrahydro-1,6-naphthyridine-6-carbonyl)hexahydrocyclopenta[c]pyrrole-2(1H)-carboxylate]	80
COCCOC(=O)N1C[C@@H]2C[C@@H](NC3CCOCC3OC)C[C@]2(C(=O)N2CCc3ccc(C(F)(F)F)cc3C2)C1 (relative stereo) [Example 49, (3aR,5R,6aR)-2-Methoxyethyl 5-(((3S*,4S*)-3-methoxytetrahydro-2H-pyran-4-yl)amino)-3a-(7-(trifluoromethyl)-1,2,3,4-tetrahydroisoquinoline-2-carbonyl)hexahydrocyclopenta[c]pyrrole-2(1H)-carboxylate]	10
COC1COCCC1N[C@@H]1C[C@H]2CN(C(=O)OCCC(C)(C)O)C[C@@]2(C(=O)N2CCc3ccc(OC(F)(F)F)cc3C2)C1 (relative stereo) [Example 50, (3aR,5R,6aR)-3-Hydroxy-3-methylbutyl 5-(((3S*,4S*)-3-methoxytetrahydro-2H-pyran-4-yl)amino)-3a-(7-(trifluoromethoxy)-1,2,3,4-tetrahydroisoquinoline-2-carbonyl)hexahydrocyclopenta[c]pyrrole-2(1H)-carboxylate]	30
COC1COCCC1N[C@@H]1C[C@H]2CN(C(=O)OCCC(F)(F)F)C[C@@]2(C(=O)N2CCc3ncc(C(F)(F)F)cc3C2)C1 (relative stereo) [Example 51, (3aR,5R,6aR)-3,3,3-Trifluoropropyl 5-(((3S*,4S*)-3-methoxytetrahydro-2H-pyran-4-yl)amino)-3a-(3-(trifluoromethyl)-5,6,7,8-tetrahydro-1,6-naphthyridine-6-carbonyl)hexahydrocyclo-penta[c]pyrrole-2(1H)-carboxylate]	140
COC1COCCC1N[C@@H]1C[C@H]2CN(C(=O)OCCC#N)C[C@@]2(C(=O)N2CCc3ncc(C(F)(F)F)cc3C2)C1 (relative stereo) [Example 52, (3aR,5R,6aR)-2-Cyanoethyl 5-(((3S*,4S*)-3-methoxytetrahydro-2H-pyran-4-yl)amino)-3a-(3-(trifluoromethyl)-5,6,7,8-tetrahydro-1,6-naphthyridine-6-carbonyl)hexahydrocyclopenta[c]pyrrole-2(1H)-carboxylate]	130
C#CCOC(=O)N1C[C@@H]2C[C@@H](NC3CCOCC3OC)C[C@]2(C(=O)N2CCc3ncc(C(F)(F)F)cc3C2)C1 (relative stereo) [Example 53, (3aR,5R,6aR)-Prop-2-yn-1-yl 5-(((3S*,4S*)-3-methoxytetrahydro-2H-pyran-4-yl)amino)-3a-(3-(trifluoromethyl)-5,6,7,8-tetrahydro-1,6-naphthyridine-6-carbonyl)hexahydrocyclopenta[c]pyrrole-2(1H)-carboxylate]	200
COC1COCCC1N[C@@H]1C[C@H]2CN(C(=O)OCCN(C)C)C[C@@]2(C(=O)N2CCc3ncc(C(F)(F)F)cc3C2)C1 (relative stereo) [Example 54, (3aR,5R,6aR)-2-(Dimethylamino)ethyl 5-(((3S*,4S*)-3-methoxytetrahydro-2H-pyran-4-yl)amino)-3a-(3-(trifluoromethyl)-5,6,7,8-tetrahydro-1,6-naphthyridine-6-carbonyl)-hexahydrocyclopenta[c]pyrrole-2(1H)-carboxylate]	150
COC1COCCC1N[C@@H]1C[C@H]2CN(C(=O)OCCNC(C)=O)C[C@@]2(C(=O)N2CCc3ccc(C(F)(F)F)cc3C2)C1 (relative stereo) [Example 55, (3aR,5R,6aR)-2-Acetamidoethyl 5-(((3S*,4S*)-3-methoxytetrahydro-2H-pyran-4-yl)amino)-3a-(7-(trifluoromethyl)-1,2,3,4-tetrahydroisoquinoline-2-carbonyl)hexahydrocyclopenta[c]pyrrole-2(1H)-carboxylate]	10
COC1COCCC1N[C@@H]1C[C@H]2CN(C(=O)OCc3ccccc3)C[C@@]2(C(=O)N2CCc3ncc(C(F)(F)F)cc3C2)C1 (relative stereo) [Example 56, (3aR,5R,6aR)-Benzyl 5-(((3S*,4S*)-3-methoxytetrahydro-2H-pyran-4-yl)amino)-3a-(3-(trifluoromethyl)-5,6,7,8-tetrahydro-1,6-naphthyridine-6-carbonyl)hexahydrocyclopenta[c]pyrrole-2(1H)-carboxylate]	120
CNC(=S)N(C1CCOCC1OC)[C@@H]1C[C@H]2CN(C(=O)OCc3ccccc3)C[C@@]2(C(=O)N2CCc3ncc(C(F)(F)F)cc3C2)C1 (relative stereo) [Example 57, (3aR,5R,6aR)-Benzyl 5-(1-((3S*,4S*)-3-methoxytetrahydro-2H-pyran-4-yl)-3-methylthioureido)-3a-(3-(trifluoromethyl)-5,6,7,8-tetrahydro-1,6-naphthyridine-6-carbonyl)hexahydrocyclopenta[c]pyrrole-2(1H)-carboxylate]	2030
COC1COCCC1N[C@@H]1C[C@H]2CN(C(=O)OCc3ccc(C#N)cc3)C[C@@]2(C(=O)N2CCc3ncc(C(F)(F)F)cc3C2)C1 (relative stereo) [Example 58, (3aR,5R,6aR)-4-Cyanobenzyl 5-(((3S*,4S*)-3-methoxytetrahydro-2H-pyran-4-yl)amino)-3a-(3-(trifluoromethyl)-5,6,7,8-tetrahydro-1,6-naphthyridine-6-carbonyl)hexahydrocyclopenta-[c]pyrrole-2(1H)-carboxylate]	200
COc1cccc(COC(=O)N2C[C@@H]3C[C@@H](NC4CCOCC4OC)C[C@]3(C(=O)N3CCc4ncc(C(F)(F)F)cc4C3)C2)c1 (relative stereo) [Example 60, (3aR,5R,6aR)-3-Methoxybenzyl 5-(((3S*,4S*)-3-methoxytetrahydro-2H-pyran-4-yl)amino)-3a-(3-(trifluoromethyl)-5,6,7,8-tetrahydro-1,6-naphthyridine-6-carbonyl)hexahydrocyclopenta-[c]pyrrole-2(1H)-carboxylate]	100
COc1ccc(COC(=O)N2C[C@@H]3C[C@@H](NC4CCOCC4OC)C[C@]3(C(=O)N3CCc4ncc(C(F)(F)F)cc4C3)C2)cc1 (relative stereo) [Example 61, (3aR,5R,6aR)-4-Methoxybenzyl 5-(((3S*,4S*)-3-methoxytetrahydro-2H-pyran-4-yl)amino)-3a-(3-(trifluoromethyl)-5,6,7,8-tetrahydro-1,6-naphthyridine-6-carbonyl)hexahydrocyclopenta-[c]pyrrole-2(1H)-carboxylate]	390
COC1COCCC1N[C@@H]1C[C@H]2CN(C(=O)OCCC(C)(C)O)C[C@@]2(C(=O)N2CCc3ncc(C(F)(F)F)cc3C2)C1 (relative stereo) [Example 62, (3aR,5R,6aR)-3-Hydroxy-3-methylbutyl 5-(((3S*,4S*)-3-methoxytetrahydro-2H-pyran-4-yl)amino)-3a-(3-(trifluoromethyl)-5,6,7,8-tetrahydro-1,6-naphthyridine-6-carbonyl)-hexahydrocyclopenta[c]pyrrole-2(1H)-carboxylate]	60
COC1COCCC1N[C@@H]1C[C@H]2CN(C(=O)OCCNC(C)=O)C[C@@]2(C(=O)N2CCc3ncc(C(F)(F)F)cc3C2)C1 (relative stereo) [Example 63, (3aR,5R,6aR)-2-Acetamidoethyl 5-(((3S*,4S*)-3-methoxytetrahydro-2H-pyran-4-yl)amino)-3a-(3-(trifluoromethyl)-5,6,7,8-tetrahydro-1,6-naphthyridine-6-carbonyl)hexahydrocyclopenta[c]pyrrole-2(1H)-carboxylate]	50
COC1COCCC1N[C@@H]1C[C@H]2CN(C(=O)OCC(C)C)C[C@@]2(C(=O)N2CCc3ncc(C(F)(F)F)cc3C2)C1 (relative stereo) [Example 64, (3aR,5R,6aR)-Isobutyl 5-(((3S*,4S*)-3-methoxytetrahydro-2H-pyran-4-yl)amino)-3a-(3-(trifluoromethyl)-5,6,7,8-tetrahydro-1,6-naphthyridine-6-carbonyl)hexahydro-cyclopenta[c]pyrrole-2(1H)-carboxylate]	40
